Source: patent US20050209232A1, “Pyridazinone ureas as antagonists of alpha4 integrins” (priority 2004, published 2005)

Assays:
human α4β7 integrin = biological target: T1, human α4β7 integrin (Homo sapiens, UniProt P13612+P26010); test: α4β7-K562 Cell Adhesion Assay (α4β7 Mediated Adhesion/MAdCAM-1); type: cell-based; conditions: K562 cells expressing human α4β7 adhering to FLAG-hMAdCAM-1, 1 mM Mn2+
T1 construct: expressed in transfected cells; host or cells: K562 cells, stably transfected
T1 sequence (P13612 34-1032): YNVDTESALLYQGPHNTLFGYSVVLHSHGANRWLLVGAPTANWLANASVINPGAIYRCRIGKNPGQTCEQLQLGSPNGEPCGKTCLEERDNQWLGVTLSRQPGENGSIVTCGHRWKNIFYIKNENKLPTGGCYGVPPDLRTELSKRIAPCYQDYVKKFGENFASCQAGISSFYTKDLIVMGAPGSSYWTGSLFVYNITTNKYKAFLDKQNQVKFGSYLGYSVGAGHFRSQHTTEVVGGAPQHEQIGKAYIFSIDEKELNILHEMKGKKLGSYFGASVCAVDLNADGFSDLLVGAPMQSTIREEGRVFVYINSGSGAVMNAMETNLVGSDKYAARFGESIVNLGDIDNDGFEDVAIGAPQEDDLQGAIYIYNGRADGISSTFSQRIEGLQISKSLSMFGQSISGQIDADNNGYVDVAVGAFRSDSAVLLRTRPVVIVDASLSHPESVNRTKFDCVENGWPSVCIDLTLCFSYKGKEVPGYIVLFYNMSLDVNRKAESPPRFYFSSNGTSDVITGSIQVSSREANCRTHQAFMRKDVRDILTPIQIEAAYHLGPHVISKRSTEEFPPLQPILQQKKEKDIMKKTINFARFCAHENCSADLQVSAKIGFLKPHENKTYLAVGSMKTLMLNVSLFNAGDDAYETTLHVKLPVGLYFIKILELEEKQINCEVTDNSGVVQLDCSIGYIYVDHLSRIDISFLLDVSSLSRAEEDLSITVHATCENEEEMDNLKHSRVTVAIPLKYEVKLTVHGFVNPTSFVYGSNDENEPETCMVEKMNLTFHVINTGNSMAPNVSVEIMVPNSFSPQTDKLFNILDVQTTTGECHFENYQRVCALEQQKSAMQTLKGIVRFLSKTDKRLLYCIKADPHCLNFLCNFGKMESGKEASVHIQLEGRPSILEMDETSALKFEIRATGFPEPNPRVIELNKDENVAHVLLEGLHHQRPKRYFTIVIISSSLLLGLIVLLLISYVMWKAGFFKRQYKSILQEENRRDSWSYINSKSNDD
T1 sequence (P26010 20-798): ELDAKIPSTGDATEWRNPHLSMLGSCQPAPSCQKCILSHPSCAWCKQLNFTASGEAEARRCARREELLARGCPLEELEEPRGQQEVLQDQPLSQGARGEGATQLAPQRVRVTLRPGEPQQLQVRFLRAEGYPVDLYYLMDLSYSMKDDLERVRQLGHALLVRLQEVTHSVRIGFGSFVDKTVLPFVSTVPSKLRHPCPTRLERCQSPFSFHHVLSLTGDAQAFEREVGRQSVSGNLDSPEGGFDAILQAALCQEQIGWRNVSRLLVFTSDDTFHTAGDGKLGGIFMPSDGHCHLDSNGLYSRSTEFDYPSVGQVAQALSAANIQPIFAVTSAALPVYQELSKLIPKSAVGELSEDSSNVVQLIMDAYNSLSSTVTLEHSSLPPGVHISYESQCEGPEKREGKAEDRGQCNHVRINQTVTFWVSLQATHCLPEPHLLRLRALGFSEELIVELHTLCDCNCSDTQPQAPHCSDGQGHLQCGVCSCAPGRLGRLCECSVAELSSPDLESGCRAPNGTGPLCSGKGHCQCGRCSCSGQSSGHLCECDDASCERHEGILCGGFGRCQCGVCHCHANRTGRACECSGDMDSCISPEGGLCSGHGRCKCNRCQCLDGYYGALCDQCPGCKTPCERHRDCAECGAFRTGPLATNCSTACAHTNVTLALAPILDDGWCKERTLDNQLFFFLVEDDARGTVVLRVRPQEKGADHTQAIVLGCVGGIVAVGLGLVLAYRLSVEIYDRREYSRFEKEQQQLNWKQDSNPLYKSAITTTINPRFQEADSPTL
Procedure: α4β7-K562 Cell Adhesion Assay (α4β7 Mediated Adhesion/MAdCAM-1)
M2 anti-FLAG Antibody Coated 96-well plates (Sigma) were coated for 1 hour at 4° C. with 2-8 μL/well recombinant FLAG-hMAdCAM-1 contained in 100 μL of Dulbecco's PBS, pH 7.4, with 1% BSA and 1 mM Mn^2+ (PBS-BSA-Mn). Plates were washed once with PBS-BSA-Mn. Buffer was removed and compounds to be tested (50 μL) were added at 2× concentration. Stably transfected K562 cells expressing human α4β7 integrin, (50 μL at 2×10^6/mL) that had been labeled with 100 μg/mL carboxymethyl fluorescein diacetate succinimidyl ester (CFDA-SE; Molecular Probes) for 15 min at 37° C. were added to each well and allowed to adhere for 1 h at room temperature. Plates were washed 4× in PBS-BSA-Mn and then cells were lysed for 2 min by addtion of 100 μL of PBS without Ca^2+, Mg^2+ supplemented with 0.1 M NaOH. The plate was read on a 96-well fluorescent plate reader at 485 nm excitation and 530 nm emission.

α4β1 = biological target: T2, α4β1 (Homo sapiens, UniProt P05556+P13612); test: Ramos Cell Adhesion Assay (α4β1 Mediated Adhesion/VCAM-1); type: cell-based; conditions: Ramos cells adhering to recombinant hVCAM-1
T2 construct: Ramos cells, (50 μL at 2×10^6/mL) labeled with 5 μM Calcein AM; endogenous in cells; host or cells: Ramos cells
Procedure: Ramos Cell Adhesion Assay (α4β1 Mediated Adhesion/VCAM-1)
Immulon 96 well plates (Dynex) were coated with 100 μL recombinant hVCAM-1 at 4.0 μg/mL in 0.05 M NaCO3 buffer pH 9.0 overnight at 4° C. (R&D Systems). Plates were washed 2 times in PBS with 1% BSA and blocked for 1 h@room temperature in this buffer. PBS was removed and compounds to be tested (50 μL) were added at 2× concentration. Ramos cells, (50 μL at 2×10^6/mL) labeled with 5 μM Calcein AM (Molecular Probes) for 1 h at 37° C., were added to each well and allowed to adhere for 1 h at room temperature. Plates were washed 4 × in PBS+1% BSA and cells were lysed for 15 minutes in 100 μL of 1 M Tris pH 8.0 with 1% SDS. The plate was read at 485 nm excitation and 530 nm emission.

Balb/c mice = test: In Vivo Model for Leukocytosis; set-up: species or system mouse; conditions: bled 1-1.5 h after administration
Text: In Vivo Model for Leukocytosis
Leukocytosis the increase in circulating white blood cells (leukocytes). This can be brought about by preventing leukocyte binding to integrin counter-receptor adhesion molecules expressed on high endothelial venules. This cell adhesion occurs between immunoglobulin superfamily molecules and integrins. Relevant examples of these paired interactions include Intracellular Adhesion Molecule-1 and AlphaL Beta2 integrin, Vascular Cell Adhesion Molecule-1 and α4β1 integrin, and Mucosal Addressin Cell Adhesion Molecule-1 and α4β7 integrin, respectively.
In this model, a compound that antagonizes these leukocyte-endothelial interactions will cause an increase in circulating leukocytes, defined as leukocytosis, as measured at 1-1.5 h post-administration. This leukocytosis is indicative that normal lymphocyte or leukocyte emigration from the peripheral circulation was prevented. Similar emigration of cells out of the circulation into inflamed tissues is responsible for the progression and maintainance of the inflammatory state. Leukocytosis is an indication that lymphocyte and leukocyte extravasation is prevented, and is predictive of general anti-inflammatory activity.
One week prior to being tested, 7-10 week old female Balb/c mice, n=8 per group, were bled and randomized according to leukocyte counts. One week later, the mice were adminstered test compound orally or subcutaneously and then bled 1-1.5 h after drug administration, approximately 1 h after the peak blood concentration of the compound has occurred. Whole blood, 250-350 microliters, was collected from each mouse into potassium-EDTA […] collection tubes (Becton-Dickenson) and mixed to prevent clotting.
Cell counts and differential counts on the whole blood preparation were performed using an Advia 120 Hematology System (Bayer Diagnostics). Cell counts as total leukocytes and as total lympohcytes were made and compared to counts made from mice dosed with vehicle only. Data were reported as percent of vehicle control for lymphocyte counts and total leukocyte counts.
Statistical analyses were performed using ANOVA with Dunnet's multiple comparison test.

T2 sequence (P05556 21-798, one chain of several): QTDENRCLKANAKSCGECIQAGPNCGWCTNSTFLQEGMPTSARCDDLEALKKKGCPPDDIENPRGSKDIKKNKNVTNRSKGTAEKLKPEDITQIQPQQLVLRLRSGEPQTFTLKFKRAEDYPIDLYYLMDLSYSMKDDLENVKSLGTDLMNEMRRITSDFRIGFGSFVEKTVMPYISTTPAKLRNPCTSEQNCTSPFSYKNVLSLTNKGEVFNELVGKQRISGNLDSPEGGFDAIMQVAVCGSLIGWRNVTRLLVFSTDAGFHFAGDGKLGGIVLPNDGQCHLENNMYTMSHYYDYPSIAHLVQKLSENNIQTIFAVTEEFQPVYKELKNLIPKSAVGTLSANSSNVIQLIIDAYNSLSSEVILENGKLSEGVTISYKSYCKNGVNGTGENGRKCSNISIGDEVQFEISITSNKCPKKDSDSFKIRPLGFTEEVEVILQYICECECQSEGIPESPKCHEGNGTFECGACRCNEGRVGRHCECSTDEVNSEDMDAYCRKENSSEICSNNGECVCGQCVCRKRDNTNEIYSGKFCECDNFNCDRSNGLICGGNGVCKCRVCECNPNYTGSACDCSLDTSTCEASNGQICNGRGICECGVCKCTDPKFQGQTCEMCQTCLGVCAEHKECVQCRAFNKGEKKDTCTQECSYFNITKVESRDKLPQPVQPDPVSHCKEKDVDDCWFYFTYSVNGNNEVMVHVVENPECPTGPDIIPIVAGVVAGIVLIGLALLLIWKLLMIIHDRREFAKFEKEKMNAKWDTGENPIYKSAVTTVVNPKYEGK

In the case of `COc1cnn(C)c(=O)c1-c1ccc(C[C@H](NC(=O)N(C)CC(C)C)C(=O)O)cc1` [Cpd 13], the IC50 (human α4β7 integrin) is reported as 17 nM, the IC50 (α4β1) is reported as 1750 nM and the “Lymphoycte Counts % of Vehicle Control” value (Balb/c mice; 3 mg/kg sc) is reported as 84.4 % of Vehicle Control. The “Total Leukocyte Count % of Vehicle Control” value (“Total Leukocyte Count %” below) (Balb/c mice; 3 mg/kg sc) was 84.4 % of Vehicle Control, the “Lymphoycte Counts % of Vehicle Control” value (Balb/c mice; 10 mg/kg sc) was 133.6 % of Vehicle Control and the “Total Leukocyte Count %” value (Balb/c mice; 10 mg/kg sc) was 133.5 % of Vehicle Control. The “Lymphoycte Counts % of Vehicle Control” value (Balb/c mice; 30 mg/kg sc) was 154.3 % of Vehicle Control and the “Total Leukocyte Count %” value (Balb/c mice; 30 mg/kg sc) was 149.5 % of Vehicle Control.
`COc1cnn(C)c(=O)c1-c1ccc(C[C@H](NC(=O)N(C)CC(C)C)C(=O)OCCO)cc1` [Cpd 21, 2-(3-Isobutyl-3-methyl-ureido)-3-[4-(5-methoxy-2-methyl-3-oxo-2,3-dihydro-pyridazin-4-yl)-phenyl]-propionic acid 2-hydroxy-ethyl ester] was tested, and the IC50 (human α4β7 integrin) was 2900 nM, the IC50 (α4β1) was greater than 5000 nM and the “Lymphoycte Counts % of Vehicle Control” value (Balb/c mice; 3 mg/kg po) was 148.1 % of Vehicle Control. For the same compound, the “Total Leukocyte Count %” value (Balb/c mice; 3 mg/kg po) was 121.9 % of Vehicle Control, the “Lymphoycte Counts % of Vehicle Control” value (Balb/c mice; 10 mg/kg po) was 156.8 % of Vehicle Control and the “Total Leukocyte Count %” value (Balb/c mice; 10 mg/kg po) was 118.7 % of Vehicle Control. The “Lymphoycte Counts % of Vehicle Control” value (Balb/c mice; 30 mg/kg po) was 189.6 % of Vehicle Control and the “Total Leukocyte Count %” value (Balb/c mice; 30 mg/kg po) was 131.0 % of Vehicle Control.
Work on `COc1cnn(C)c(=O)c1-c1ccc(C[C@H](NC(=O)N(C)c2ccccc2)C(=O)O)cc1` [Cpd 10] yielded an IC50 (human α4β7 integrin) of 63 nM and an IC50 (α4β1) greater than 5000 nM.
`COc1cnn(C)c(=O)c1-c1ccc(C[C@H](NC(=O)N2CCC[C@H]2CN2CCCC2)C(=O)O)cc1` [Cpd 39] gave an IC50 (human α4β7 integrin) of 871 nM and an IC50 (α4β1) greater than 5000 nM.
Work on `COc1cnn(C)c(=O)c1-c1ccc(C[C@H](NC(=O)N(CCO)C2CCCCC2)C(=O)O)cc1` [Cpd 17] yielded an IC50 (human α4β7 integrin) of 282 nM and an IC50 (α4β1) greater than 5000 nM.
For `COc1cnn(C)c(=O)c1-c1ccc(C[C@H](NC(=O)NCc2ccccc2)C(=O)O)cc1` [Cpd 9], the IC50 (human α4β7 integrin) was 370 nM and the IC50 (α4β1) was greater than 5000 nM.
`COc1cnn(C)c(=O)c1-c1ccc(C[C@H](NC(=O)N(Nc2ccccc2)c2ccccc2)C(=O)O)cc1` [Cpd 46] showed an IC50 (human α4β7 integrin) of 575 nM and an IC50 (α4β1) greater than 5000 nM.
`COc1cnn(C)c(=O)c1-c1ccc(C[C@H](NC(=O)N(CCO)c2ccccc2)C(=O)O)cc1` [Cpd 16] showed an IC50 (human α4β7 integrin) of 69 nM and an IC50 (α4β1) greater than 5000 nM.
With `COc1cnn(C)c(=O)c1-c1ccc(C[C@H](NC(=O)N(C2CC2)C2CCN(C)CC2)C(=O)O)cc1` [Cpd 22] the IC50 (human α4β7 integrin) was 135 nM and the IC50 (α4β1) was greater than 5000 nM.
`COc1cnn(C)c(=O)c1-c1ccc(C[C@H](NC(=O)N(C(C)C)C(C)C)C(=O)O)cc1` [Cpd 1, 2-(3,3-Diisopropyl-ureido)-3-[4-(5-methoxy-2-methyl-3-oxo-2,3-dihydro-pyridazin-4-yl)-phenyl]-propionic acid] gave an IC50 (human α4β7 integrin) of 124 nM and an IC50 (α4β1) greater than 1000 nM.
In the case of `COc1cnn(C)c(=O)c1-c1ccc(C[C@H](NC(=O)N(C(C)C)C2CCCCC2)C(=O)O)cc1` [Cpd 33], the IC50 (human α4β7 integrin) is reported as 310 nM and the IC50 (α4β1) is reported as greater than 5000 nM.
Work on `CCN(CCN(C)C)C(=O)N[C@@H](Cc1ccc(-c2c(OC)cnn(C)c2=O)cc1)C(=O)O` [Cpd 37] yielded an IC50 (human α4β7 integrin) of 297 nM and an IC50 (α4β1) greater than 5000 nM.
With `COc1cnn(C)c(=O)c1-c1ccc(C[C@H](NC(=O)N(Cc2ccccc2)CC(C)C)C(=O)O)cc1` [Cpd 18] the IC50 (human α4β7 integrin) was 395 nM and the IC50 (α4β1) was 2650 nM.
Work on `COc1cnn(C)c(=O)c1-c1ccc(C[C@H](NC(=O)N(c2ccccc2)c2ccccc2)C(=O)O)cc1` [Cpd 47] yielded an IC50 (human α4β7 integrin) of 1450 nM and an IC50 (α4β1) greater than 5000 nM.
For `COc1cnn(C)c(=O)c1-c1ccc(C[C@H](NC(=O)N2CCN(c3ncc(C(F)(F)F)cc3Cl)CC2)C(=O)O)cc1` [Cpd 24], the IC50 (human α4β7 integrin) was 391 nM and the IC50 (α4β1) was greater than 5000 nM.
With `COc1cnn(C)c(=O)c1-c1ccc(C[C@H](NC(=O)N(CCO)Cc2ccccc2)C(=O)O)cc1` [Cpd 15] the IC50 (human α4β7 integrin) was 310 nM and the IC50 (α4β1) was greater than 5000 nM.
